Experimental data reported in PubChem BioAssay AID248 (DTP/NCI, 2004).
Where “and” joins values, the source holds several entries; their conditions need not be identical. Equal values may be shown once. Toxic doses and inconclusive results are not listed. Rule as the data show it: active = T/C of 150% or more; inactive = T/C below 125%.

Test system: L1210 leukemia ip in BDF1 mice, survival T/C
Test: NCI In Vivo Anticancer Drug Screen. Data for tumor model L1210 Leukemia (intraperitoneal) in B6D2F1 (BDF1) mice
Conditions: endpoint: mean survival time, higher = longer survival
How it was run: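 In this screen, tumor-bearing mice given compound are compared to those given vehicle, and their survival values are reported as a treated-to-control quotient.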

[1] = dose: 100.0 mg/kg/injection, schedule: Q01DX001 (ip), vehicle: saline
[2] = dose: 100.0 mg/kg/injection, schedule: Q01DX009 (ip), vehicle: saline
[3] = dose: 100.0 mg/kg/injection, schedule: Q04DX003 (ip), vehicle: saline
[4] = dose: 200.0 mg/kg/injection, schedule: Q01DX001 (ip), vehicle: saline
[5] = dose: 200.0 mg/kg/injection, schedule: Q01DX009 (ip), vehicle: saline
[6] = dose: 200.0 mg/kg/injection, schedule: Q04DX003 (ip), vehicle: saline
[7] = dose: 400.0 mg/kg/injection, schedule: Q01DX001 (ip), vehicle: saline
[8] = dose: 400.0 mg/kg/injection, schedule: Q01DX009 (ip), vehicle: saline
[9] = dose: 400.0 mg/kg/injection, schedule: Q04DX003 (ip), vehicle: saline
[10] = dose: 75.0 mg/kg/injection, schedule: Q01DX001 (ip), vehicle: saline
[11] = dose: 150.0 mg/kg/injection, schedule: Q01DX001 (ip), vehicle: saline
[12] = dose: 100.0 mg/kg/injection, schedule: Q01DX009 (ip), vehicle: Klucel (hydroxypropylcellulose) (HPC)
[13] = dose: 200.0 mg/kg/injection, schedule: Q01DX009 (ip), vehicle: Klucel (hydroxypropylcellulose) (HPC)

Measured: T/C

O=C(O)C(F)(F)F
inactive: dose: 50.0 mg/kg/injection, schedule: Q01DX001 (ip), vehicle: water 112 % of control | dose: 50.0 mg/kg/injection, schedule: Q01DX001 (iv), vehicle: water 116 % of control | [1] 102 % of control | dose: 100.0 mg/kg/injection, schedule: Q01DX001 (iv), vehicle: water 114 % of control | [2] 100 % of control | dose: 100.0 mg/kg/injection, schedule: Q04DX002 (ip), vehicle: saline 96 % of control and 98 % of control | [3] 95 % of control | [4] 104 % of control | [5] 95 % of control and 96 % of control | dose: 200.0 mg/kg/injection, schedule: Q04DX002 (ip), vehicle: saline 94 % of control and 89 % of control | [6] 93 % of control | [7] 98 % of control | [8] 98 % of control and 90 % of control | dose: 400.0 mg/kg/injection, schedule: Q04DX002 (ip), vehicle: saline 93 % of control and 94 % of control | [9] 91 % of control

O=C1Nc2ccccc2C1=NC1CCCC1
inactive: [1] 93 % of control | [4] 98 % of control | [7] 97 % of control

Clc1ccc(/C=C/c2nc(Cl)c(-c3ccc(Cl)cc3)c(Cl)n2)cc1
inactive: [10] 105 % of control | [11] 92 % of control | dose: 150.0 mg/kg/injection, schedule: Q04DX003 (ip), vehicle: Klucel (hydroxypropylcellulose) (HPC) 113 % of control | dose: 300.0 mg/kg/injection, schedule: Q01DX001 (ip), vehicle: saline 97 % of control | dose: 300.0 mg/kg/injection, schedule: Q04DX003 (ip), vehicle: Klucel (hydroxypropylcellulose) (HPC) 92 % of control

NC(=O)C[n+]1ccccc1
inactive: [1] 106 % of control | [4] 98 % of control | [7] 97 % of control

CCCCN(C)N=Nc1c[nH]c(=O)[nH]c1=O
inactive: dose: 75.0 mg/kg/injection, schedule: Q01DX001 (ip), vehicle: other 95 % of control

CCNCCn1cccc1
inactive: dose: 50.0 mg/kg/injection, schedule: Q01DX009 (ip), vehicle: saline 97 % of control | [2] 100 % of control | [3] 97 % of control | [5] 97 % of control | [6] 100 % of control

C1CC2CCC1CNC2
inactive: dose: 50.0 mg/kg/injection, schedule: Q04DX003 (ip), vehicle: saline 104 % of control | [3] 106 % of control

O=C(O)C1=C2C(=O)Nc3cccc(c32)C2(C1)C(=O)Nc1ccccc12 (stereo not drawn)
inactive: dose: 100.0 mg/kg/injection, schedule: Q04DX002 (ip), vehicle: saline with Tween-80 103 % of control | dose: 200.0 mg/kg/injection, schedule: Q04DX002 (ip), vehicle: saline with Tween-80 103 % of control | dose: 400.0 mg/kg/injection, schedule: Q04DX002 (ip), vehicle: saline with Tween-80 103 % of control

Cc1cccc(C)c1NC(=S)N1CCOCC1
inactive: dose: 100.0 mg/kg/injection, schedule: Q01DX009 (ip), vehicle: other 106 % of control | dose: 200.0 mg/kg/injection, schedule: Q01DX009 (ip), vehicle: other 116 % of control | dose: 400.0 mg/kg/injection, schedule: Q01DX009 (ip), vehicle: other 122 % of control

COC(=O)c1cc(=O)c2cccc(C(=O)O)c2[nH]1
inactive: dose: 50.0 mg/kg/injection, schedule: Q01DX009 (ip), vehicle: Klucel (hydroxypropylcellulose) (HPC) 109 % of control | [12] 98 % of control | [13] 102 % of control

Cc1ccc(Cl)c(P(=O)(O)O)c1
inactive: dose: 100.0 mg/kg/injection, schedule: Q04DX003 (ip), vehicle: saline with Tween-80 97 % of control | dose: 200.0 mg/kg/injection, schedule: Q04DX003 (ip), vehicle: saline with Tween-80 106 % of control | dose: 400.0 mg/kg/injection, schedule: Q04DX003 (ip), vehicle: saline with Tween-80 104 % of control

Cc1ccc(C)c(NC(=O)NC(C)C)c1
inactive: [12] 94 % of control | dose: 100.0 mg/kg/injection, schedule: Q04DX003 (ip), vehicle: Klucel (hydroxypropylcellulose) (HPC) 96 % of control | [13] 94 % of control | dose: 200.0 mg/kg/injection, schedule: Q04DX003 (ip), vehicle: Klucel (hydroxypropylcellulose) (HPC) 91 % of control | dose: 400.0 mg/kg/injection, schedule: Q01DX009 (ip), vehicle: Klucel (hydroxypropylcellulose) (HPC) 91 % of control | dose: 400.0 mg/kg/injection, schedule: Q04DX003 (ip), vehicle: Klucel (hydroxypropylcellulose) (HPC) 89 % of control

NC1C(O)C(N)C(O)C(O)C1O (stereo not drawn)
inactive: dose: 100.0 mg/kg/injection, schedule: Q04DX003 (ip), vehicle: saline sonified 97 % of control | dose: 200.0 mg/kg/injection, schedule: Q04DX003 (ip), vehicle: saline sonified 97 % of control | dose: 400.0 mg/kg/injection, schedule: Q04DX003 (ip), vehicle: saline sonified 95 % of control

O=C1C=C(O)c2ccccc2C1=O
inactive: dose: 10.0 mg/kg/injection, schedule: Q01DX Z (ip), vehicle: other 98 % of control | dose: 12.5 mg/kg/injection, schedule: Q04DX003 (ip), vehicle: saline with Tween-80 98 % of control | dose: 20.0 mg/kg/injection, schedule: Q01DX Z (ip), vehicle: other 88 % of control | dose: 25.0 mg/kg/injection, schedule: Q04DX003 (ip), vehicle: saline with Tween-80 106 % of control | dose: 30.0 mg/kg/injection, schedule: Q01DX Z (ip), vehicle: other 90 % of control | dose: 31.2 mg/kg/injection, schedule: Q01DX Z (ip), vehicle: other 97 % of control | dose: 40.0 mg/kg/injection, schedule: Q01DX Z (ip), vehicle: other 90 % of control | dose: 50.0 mg/kg/injection, schedule: Q04DX003 (ip), vehicle: saline with Tween-80 92 % of control

CCCCCCN(CCCCCC)CC(=O)NCCCN1CCN(CCCNC(=O)CN(CCCCCC)CCCCCC)CC1
inactive: dose: 12.5 mg/kg/injection, schedule: Q01DX001 (ip), vehicle: carboxymethylcellulose (CMC) 105 % of control | dose: 22.0 mg/kg/injection, schedule: Q01DX001 (ip), vehicle: carboxymethylcellulose (CMC) 98 % of control and 104 % of control | dose: 25.0 mg/kg/injection, schedule: Q01DX001 (ip), vehicle: carboxymethylcellulose (CMC) 100 % of control | dose: 33.0 mg/kg/injection, schedule: Q01DX001 (ip), vehicle: carboxymethylcellulose (CMC) 95 % of control and 100 % of control | dose: 50.0 mg/kg/injection, schedule: Q01DX001 (ip), vehicle: carboxymethylcellulose (CMC) 98 % of control and 101 % of control

CC(=N)/C(C(=O)NC1CCCCC1)=C(/C)O
inactive: [2] 101 % of control | [3] 104 % of control | [5] 103 % of control | [6] 109 % of control | [8] 93 % of control | [9] 96 % of control

CC(=O)Nc1ccnc(=O)[nH]1
inactive: [10] 106 % of control | [11] 95 % of control

O=C(O)c1ccccc1C(=O)OC1=CS(=O)(=O)CC1
inactive: dose: 50.0 mg/kg/injection, schedule: Q01DX001 (ip), vehicle: saline with Tween-80 97 % of control | dose: 100.0 mg/kg/injection, schedule: Q01DX001 (ip), vehicle: saline with Tween-80 101 % of control and 104 % of control | dose: 200.0 mg/kg/injection, schedule: Q01DX001 (ip), vehicle: saline with Tween-80 95 % of control and 123 % of control | dose: 400.0 mg/kg/injection, schedule: Q01DX001 (ip), vehicle: saline with Tween-80 104 % of control and 105 % of control

C1=Nc2cc3c(cc2Cn2cccc21)OCO3
inactive: dose: 25.0 mg/kg/injection, schedule: Q04DX002 (ip), vehicle: Klucel (hydroxypropylcellulose) (HPC) 86 % of control | dose: 50.0 mg/kg/injection, schedule: Q04DX002 (ip), vehicle: Klucel (hydroxypropylcellulose) (HPC) 94 % of control | dose: 100.0 mg/kg/injection, schedule: Q04DX002 (ip), vehicle: Klucel (hydroxypropylcellulose) (HPC) 94 % of control
